# Patent publication US20100286152A1, “N-PHENYL HYDRAZIDES AS MODULATORS OF THE GHRELIN RECEPTOR” (Glaxo Group Limited, priority 2007, published 2010)
# Molecular target: T1, Human GHS-R (ghrelin receptor) (Homo sapiens, UniProt Q92847)
# T1 construct: The full-length gene was transferred into pCDN for expression analysis; expressed in transfected cells; host or cells: U2OS cells transduced with human GHSR BacMam virus
# Test: GHSR Agonist BACMAM FLIPR Assay (Method X or Y)
# Format: cell-based
# Conditions: U2OS cells, maximum asymptote relative to that of the hGhrelin concentration response curve
# Procedure: (§1) 24 h prior to assay U2OS cells at confluence 100% were harvested and spun down. The supernatant was removed and the cells resuspended in media (DMEM+10% FBS+1% L-Glutamine). A cell count was performed using the Cedex instrumentation, and the concentration of cells was adjusted using media to give 200K cells per mL (10K cells/50 μL).
# (§2) Human GHSR BACMAM virus was added to the cell suspension at an appropriate % volume (calculated for individual batches of BACMAM virus as viral titres vary). The transduced cell suspension was dispensed into FLIPR 384-well clear bottom plates, 50 μL per well. Cell plates were incubated at 37° C. overnight.
# Master compound plates were prepared in 100% DMSO. 3 mM was the top concentration (giving 10 μM final concentration) and they were serially diluted 1 in 4. 1 μL from the master plate was transferred to a daughter plate, to which was added 50 μL of compound dilution (Tyrodes {Elga water+145 mM NaCl+5 mM KCl+20 mM HEPES+10 mM glucose+1 mM MgCl2+1.5 mM CaCl2}. For the agonist assay, the compound buffer also contained 0.1% BSA. This plate was used for the assay. Ghrelin was always prepared in buffer containing 0.1% BSA.
# Master compound plates were prepared in 100% DMSO. 3 mM was the top concentration (giving 10 μM final concentration) and they were serially diluted 1 in 4. 1 μL from the master plate was transferred to a daughter plate, to which was added 50 μL of compound dilution (HBSS {Elga water+137 mM NaCl+5 mM KCl+0.41 mMa KH2PO4(anhyd)+20 mM HEPES+5 mM glucose+0.81 mM MgSO4(anhyd)+1.3 mM CaCl2+4.16 mM NaHCO3}. For the agonist assay, the compound buffer also contained 0.1% BSA. This plate was used for the assay. Ghrelin was always prepared in buffer containing 0.1% BSA.
# Media was aspirated from cell plates using a cell washer (leaving 10 μL of media). Cells were immediately loaded with loading buffer (Tyrodes buffer-(Elga water+145 mM NaCl+5 mM KCl+20 mM HEPES+10 mM glucose+1 mM MgCl2)+1.5 mM CaCl2+0.714 mg/mL Probenecid (predissolved in 1 M NaOH)+0.25 mM brilliant black+2 μM Fluo 4 dye, and incubated at 37.5° C., 5% CO2 for 90 min. The plates were placed in a FLuorimetric Imaging Plate Reader (FLIPR, Molecular Devices) where 10 μL of compound, prepared according to method A above, was added to the cells and fluorescence measurements were taken. Maximum changes in fluorescence were plotted as a percentage of the maximum response elicited by 300 nM hGhrelin and curves fitted using a 4-parameter logistic equation to generate pEC50 values. Intrinsic activity of the compounds was calculated by using the maximum asymptote of it's concentration response curve relative to the maximum asymptote of the hGhrelin concentration response curve.
# Media was aspirated from cell plates using a cell washer (leaving 10 μL of media). Cells were immediately loaded with loading buffer (HBSS (Elga water+137 mM NaCl+5 mM KCl+0.41 mM KH2PO4(anhyd)+20 mM HEPES+5 mM glucose+0.81 mM MgSO4(anhyd))+1.3 mM CaCl2+4.16 mM NaHCO3+0.714 mg/mL Probenecid (predissolved in 1 M NaOH)+0.25 mM brilliant black+2 μM Fluo 4 dye, and incubated at 37.5° C., 5% CO2 for 90 min. The plates were placed in a FLuorimetric Imaging Plate Reader (FLIPR, Molecular Devices) where 10 μL of compound, prepared according to method B above, was added to the cells and fluorescence measurements were taken. Maximum changes in fluorescence were plotted as a percentage of the maximum response elicited by 300 nM hGhrelin and curves fitted using a 4-parameter logistic equation to generate pEC50 values. Intrinsic activity of the compounds was calculated by using the maximum asymptote of it's concentration response curve relative to the maximum asymptote of the hGhrelin concentration response curve.
# T1 sequence (Q92847 whole entry): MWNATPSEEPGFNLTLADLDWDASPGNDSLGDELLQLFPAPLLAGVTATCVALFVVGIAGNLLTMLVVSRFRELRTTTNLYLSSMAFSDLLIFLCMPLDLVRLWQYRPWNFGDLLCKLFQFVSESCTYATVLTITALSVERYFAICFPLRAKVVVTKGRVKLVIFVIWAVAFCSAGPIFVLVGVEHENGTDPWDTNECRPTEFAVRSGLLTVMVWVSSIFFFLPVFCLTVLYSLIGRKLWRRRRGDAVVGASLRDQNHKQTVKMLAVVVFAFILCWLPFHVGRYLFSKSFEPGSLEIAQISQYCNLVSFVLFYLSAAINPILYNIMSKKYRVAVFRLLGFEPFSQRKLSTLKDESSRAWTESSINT
row,Structure (SMILES),intrinsic activity (IA)
1,"CN1CCN(C(C(=O)NNc2cc(C(F)(F)F)cc(C(F)(F)F)c2)c2cccc3c2OC(F)(F)O3)CC1 (racemic) [Compound 46, (±)-N′-[3,5-bis(trifluoromethyl)phenyl]-2-(2,2-difluoro-1,3-benzodioxol-4-yl)-2-(4-methyl-1-piperazinyl)acetohydrazide]",0.4
2,"Cc1cccnc1C(C(=O)NNc1cc(C(F)(F)F)cc(C(F)(F)F)c1)N1CCN(C)CC1 (single isomer, unassigned; enantiomer 1) [Compound 55, N′-[3,5-bis(trifluoromethyl)phenyl]-2-(4-methyl-1-piperazinyl)-2-(3-methyl-2-pyridinyl)acetohydrazide-enantiomer 1]",0.4
3,"O=C(NNc1cc(C(F)(F)F)cc(C(F)(F)F)c1)C(c1ccccc1Cl)N1CCN2CCC[C@H]2C1 (single isomer, unassigned; diastereoisomer 2) [Compound 83]",0.4
4,"CN1CCN(C(C(=O)NNc2cc(C(F)(F)F)cc(C(F)(F)F)c2)c2cccc(OC(F)(F)F)c2)CC1 (racemic) [Compound 37, (±)-N′-[3,5-bis(trifluoromethyl)phenyl]-2-(4-methyl-1-piperazinyl)-2-{3-[(trifluoromethyl)oxy]phenyl}acetohydrazide]",0.4
5,"CN1CCN(C(C(=O)NNc2cc(C(F)(F)F)cc(C(F)(F)F)c2)c2cncnc2)CC1 (single isomer, unassigned; enantiomer 1) [Compound 78, N′-[3,5-bis(trifluoromethyl)phenyl]-2-(4-methyl-1-piperazinyl)-2-(5-pyrimidinyl)acetohydrazide-enantiomer 1]",0.4
6,"CN1CCC(C(C(=O)NNc2cc(Cl)cc(Cl)c2)c2cccc3ccccc23)CC1 (single isomer, unassigned; enantiomer 1) [Compound 73, N′-(3,5-dichlorophenyl)-2-(1-methyl-4-piperidinyl)-2-(1-naphthalenyl)-acetohydrazide-enantiomer 1]",0.4
7,"CN1CCN(C(C)(C(=O)NNc2cc(C(F)(F)F)cc(C(F)(F)F)c2)c2ccccn2)CC1 (single isomer, unassigned) [Compound 130, N′-[3,5-bis(trifluoromethyl)phenyl]-2-(4-methyl-1-piperazinyl)-2-(2-pyridinyl)propanohydrazide]",0.4
8,"CN1CCN(C(C(=O)NNc2cc(C(F)(F)F)cc(C(F)(F)F)c2)c2ccc3c(c2)CCO3)CC1 (single isomer, unassigned; enantiomer 1) [Compound 20, N′-[3,5-bis(trifluoromethyl)phenyl]-2-(2,3-dihydro-1-benzofuran-5-yl)-2-(4-methyl-1-piperazinyl)acetohydrazide-enantiomer 1]",0.4
9,"Cc1cccnc1C(C(=O)NNc1cc(C(F)(F)F)cc(C(F)(F)F)c1)N1CCN(C)CC1 (single isomer, unassigned; enantiomer 2) [Compound 56, N′-[3,5-bis(trifluoromethyl)phenyl]-2-(4-methyl-1-piperazinyl)-2-(3-methyl-2-pyridinyl)acetohydrazide-enantiomer 2]",0.4
10,"CN1CCN(C(C(=O)NNc2cc(C(F)(F)F)cc(C(F)(F)F)c2)c2ccccc2Cl)CC1 (single isomer, unassigned; enantiomer 1) [Compound 9, N′-[3,5-bis(trifluoromethyl)phenyl]-2-(2-chlorophenyl)-2-(4-methyl-1-piperazinyl)acetohydrazide-enantiomer 1]",0.4
11,"O=C(NNc1cc(C(F)(F)F)cc(C(F)(F)F)c1)C(c1cccnc1)N1CCN2CCC[C@H]2C1 (single isomer, unassigned) [Compound 126]",0.4
12,"Cc1ccc(C(C(=O)NNc2cc(C(F)(F)F)cc(C(F)(F)F)c2)N2CCN3CCC[C@@H]3C2)c(C)n1 (single isomer, unassigned; diastereoisomer 1) [Compound 80]",0.4
13,"O=C(NNc1cc(C(F)(F)F)cc(C(F)(F)F)c1)C(c1ccccc1Cl)N1CCN2CCC[C@@H]2C1 (single isomer, unassigned; diastereoisomer 2) [Compound 85]",0.4
14,"CN1CCN(C(C(=O)NNc2cc(C(F)(F)F)cc(C(F)(F)F)c2)c2cccc(Cl)c2)CC1.O=CO (racemic) [Compound 45, (±)-formic acid-N′-[3,5-bis(trifluoromethyl)phenyl]-2-(3-chlorophenyl)-2-(4-methyl-1-piperazinyl)acetohydrazide]",0.4

# Molecular target: T1, Human GHS-R (ghrelin receptor)
# Test: GHSR Agonist BACMAM FLIPR Assay (Method Z)
# Format: cell-based
# Conditions: U2OS cells, maximum asymptote relative to maximum response of hGhrelin at 100 nM
# Procedure: as §1, §2
# Master compound plates were prepared in 100% DMSO. 0.6 mM was the top concentration (giving 3 μM final concentration) and they were serially diluted 1 in 4. 1 μL from the master plate was transferred to a daughter plate, to which was added 50 μL of compound dilution (NaCl (145 mM) KCl (5 mM) CaCl2 (2 mM) MgCl2 (1 mM) HEPES (20 mM) D-(+)-Glucose (1 g/l), pluronic acid (0.05%), pH 7.3). This plate was used for the assay. Ghrelin was always prepared in compound dilution buffer containing 0.1% BSA.
# Media was washed from cell plates, using a cell washer (leaving 20 μL of washing buffer (NaCl (145 mM)+KCl (5 mM)+CaCl2 (2 mM)+MgCl2 (1 mM)+HEPES (20 mM)+D-(+)-Glucose (1 g/l)+Probenecid (2.5 mM), pH 7.3). Cells were immediately loaded with loading buffer (washing buffer+pluronic acid (0.02%)+Fluo 4 dye (2 μM), and incubated at 37° C., for 60 min. After a second washing step (same as for the pre-loading, but leaving 30 μL of washing buffer), the plates were placed in a FLuorimetric Imaging Plate Reader (FLIPR, Molecular Devices) where 10 μL of compound, prepared according to method C above, was added to the cells and fluorescence measurements were taken. […] Percentage activation of the compounds was calculated by using the maximum asymptote of it's concentration response curve relative to the maximum response of the hGhrelin at 100 nM concentration.
row,Structure (SMILES),percentage activation [%]
1,"Cc1ccc(C(C(=O)NNc2cc(C(F)(F)F)cc(C(F)(F)F)c2)N2CCN3CCC[C@@H]3C2)cn1 (single isomer, unassigned; diastereoisomer 1) [Compound 92]",> 40
2,"Cc1ncccc1C(C(=O)NNc1cc(C(F)(F)F)cc(C(F)(F)F)c1)N1CCN2CCC[C@@H]2C1 (single isomer, unassigned; diastereoisomer 1) [Compound 94]",> 40
3,"O=C(NNc1cc(C(F)(F)F)cc(C(F)(F)F)c1)C(c1ccc2c(c1)OCCO2)N1CCN2CCC[C@@H]2C1 (single isomer, unassigned; diastereoisomer 1) [Compound 96]",> 40
